Paper PMC8657848, “Developmental Toxicity and Biotransformation of Two Anti-Epileptics in Zebrafish Embryos and Early Larvae” (International Journal of Molecular Sciences, 2021)

Tests used:
zebrafish embryos/larvae = test: Quantification of parent compounds and metabolites in whole zebrafish embryos/larvae homogenate extracts; details: for Uptake by embryos and larvae (quantified in homogenate extracts): CBZ, PHE 31.25, 85, 250 µM, E-CBZ, HPPH 250 µM
Protocol: In three biological replicates (n = 3; 20 embryos/replicate) and at the two desired developmental stages (24 and 120 hpf), embryos/larvae of each test and control group were pooled and then rinsed three times with cold EMS (4 °C) on a mesh (Cell strainer […] Nylon, Steril Falcon®, Durham, NC, USA). Embryos collected at 24 hpf were not dechorionated, as the focus of this study was on the potential formation of the mammalian active metabolites. Moreover, it was argued that the chorion was more permeable than previously believed and that dechorionation could increase background malformations during gross morphology investigation. Embryos/larvae were then transferred and kept for five min in cryotubes (Cryo.S™, Greiner Bio-One, Frickenhausen, Germany) filled with 500 µL of cold embryo medium (4 °C), before being snap-frozen in liquid nitrogen and kept, for later use, at −80 °C (Figure 9).
The extraction preparation was based on Brox et al. for two developmental stages, 24 and 120 hpf, and performed in triplicate for each test group (n = 3, 20 embryos/replicate) (Figure 9). On the day of the extraction procedure, frozen samples (see Section 4.2.1) were thawed on ice and EMS was removed. A volume of 500 µL of acetonitrile (ACN) (purity ≥99.9%, Merck, Darmstadt, Germany) containing the internal standard lamotrigine, LAMO, (≥98% purity, CAS number: 84057-84-1, Sigma-Aldrich, Merck, Darmstadt, Germany) was then added to each tube to reach a final concentration of 0.39 µM, after dilution in HPLC-grade water. Samples were vortexed (VM3, CAT, Germany) for 5 min at a 2000 rotation/min speed, before being placed on ice and ultrasonicated with an Ultrasonic Processor VCX 130 (Sonics, Newtown, CT, USA) fifteen times for 30 s at an 80% amplitude with pause intervals of 30 s. Supernatants of the samples were then centrifuged (Centrifuge 5424 R, Eppendorf, Hamburg, Germany) twice at 4 °C for 15 min at 15,000× g, snap-frozen and kept for later use at −80 °C, whereas the pellets were discarded.
First, both sample types were processed to reach a final percentage of 30% ACN and a concentration of 0.39 µM of the IS, LAMO. […] Calibration curves and quality controls were prepared in their corresponding reaction mixtures to minimize matrix or extraction process effects. The analytical investigations were performed on an Acquity Ultra Performance Liquid Chromatography (UPLC) with sample manager, binary solvent manager, diode array detector and a triple-quadrupole detector (ACQUITY UPLC-triple quadrupole detector, Waters, Milford, CT, USA) equipped with the Masslynx software (version 4.1). […] Separation was accomplished in 6 min, using a flow rate of 0.5 mL/min. The solvent gradient program was set as follows: 85% A/15% B (0–0.5 min); 85–0% A/15–100% B (0.5–3.3 min); 0% A/100% B (3.3–4.4 min); 0–85% A/100–15% B (4.4–4.5 min); 85% A/15% B (4.5–6 min). The column was set at 40 °C and the injection volume was 10 μL. For the mass spectrometric conditions, the following parameters were used in positive ionization mode: capillarity voltage 3.5 kV, extractor voltage 3 V, cone voltage 35 V, Rf lens 0.1 V. The source temperature was set at 120 °C and the desolation temperature at 450 °C. The desolvation gas flow was fixed at 1000 L/h and cone gas flow at 50 L/h. […] The limit of quantification, linearity, matrix effects and specificity of the method developed for each compound were validated based on the European Medicines Agency (EMA) guidelines for bioanalytical method validation and the study from Kislyuk et al..
For the quantification of the metabolites E-CBZ and HPPH, the samples processed were the microsomal incubation reactions (see Section 4.3.2), the zebrafish culture and stock medium (4.2.1) and the zebrafish embryos/larvae extracts (see Section 4.2.3). Samples from the different experiments were also prepared, as for the parent compounds, to reach a final percentage of 30% ACN and a concentration of 0.39 µM of the IS, LAMO.

[1] = Microsomal incubation with CBZ and PHE, rat liver microsomes; format: in vitro ADME; details: rat adult liver microsomes; data not shown
Protocol: Moreover, positive and negative controls were included: pooled human liver microsomes (Gibco™, HMMCPL–PL050B, Thermo Fisher Scientific) and Insect Cell Control Supersomes™ (lot number: PL050 C-B, 456201, Corning Incorporated, Corning, NY, USA), respectively. Based on Oziolor et al., microsomal reactions were initiated after adding the substrate solution at a concentration of 100 µM (see Supplementary Table S1) in a mixture of 100 mM K3PO4 buffer (Corning® Gentest™, NY, USA) of pH 7.4, 5% and 1% of NADPH regenerating system reagents A and B, respectively (Corning, Woburn, MA, USA) and 200 µg/mL of microsomal protein, for a total volume of 500 µL. The reactions were performed at 28.5 ± 0.3 °C until the time point of interest. […]
For the quantification of the metabolites E-CBZ and HPPH, the samples processed were the microsomal incubation reactions (see Section 4.3.2), the zebrafish culture and stock medium (4.2.1) and the zebrafish embryos/larvae extracts (see Section 4.2.3). […] To quantify the concentrations of E-CBZ and HPPH in these samples, standard curves (in duplicate) of 10 concentrations for E-CBZ (0.5–400 ng/mL; see Supplementary Table S1) and HPPH (2–1600 ng/mL; see Supplementary Table S1) were prepared, as were quality controls. […]

For `NC(=O)N1c2ccccc2C=Cc2ccccc21` [CBZ, carbamazepine], the “E-CBZ in embryo/larva extracts after exposure to CBZ” value (zebrafish embryos/larvae; 31.25 µM CBZ, 24 and 120 hpf) was “could not be detected”, the “Internal concentration, fold lower at 120 hpf than at 24 hpf” value (zebrafish embryos/larvae; 85 µM) was 3.4 fold and the “Uptake by embryos and larvae (quantified in homogenate extracts)” value (zebrafish embryos/larvae; 24 and 120 hpf) was “taken up”. For the same compound, the “Decrease of parent compound after 240 min (pilot investigation)” value [1] was “no changes”.

For `O=C1NC(=O)C(c2ccccc2)(c2ccccc2)N1` [PHE, phenytoin], the “Uptake by embryos and larvae (quantified in homogenate extracts)” value (zebrafish embryos/larvae; 24 and 120 hpf) was “taken up”, the “HPPH in embryo/larva extracts after exposure to PHE” value (zebrafish embryos/larvae; 24 hpf and 120 hpf, any samples) was “could not detect” and the “Internal concentration, times higher at 24 hpf than at 120 hpf” value (zebrafish embryos/larvae; all concentrations) was ~5 times. The “Decrease of parent compound after 240 min (pilot investigation)” value [1] was “very slight decrease”.
